# Results: patent publication US10076511B2, “Bisamide derivative of dicarboxylic acid as an agent for stimulating tissue regeneration and recovery of diminished tissue function” (TREAMID GmbH, priority 2015, dated 2018)
# Experiments:
# [1] = system: male Wistar rats; experiment: Chronic abacterial prostatitis (CAP) model, prostate weight and morphometry; assay type: in vivo, rat
# Description: This is manifested in a decrease in the severity of the morphological changes typical in these diseases. CAP was simulated by suturing the ventral lobe of the gland with a silk thread, and BPH was simulated by the administration of Sulpiride. The reference drug was Prostamol Uno.
# Treamid were administered intragastrically to animals with CAP at a dose of 0.5 mg/kg for 15 days.
# Experiments were performed on 40 male Wistar rats (3 months of age). To simulate chronic abacterial prostatitis, the ventral lobe of the prostate was sutured with a silk thread (under anesthesia). The model of benign prostatic hyperplasia (BPH) was simulated in rats by inducing hyperprolactinaemia, for which male rats were intraperitoneally injected with Sulpiride at a dose of 40 mg/kg every day for 2 months (Eglonil, Sanofi Winthrop Industry, France).
# One month after the surgery, the animals of the experimental group were intraperitoneally administered Treamid at a dose of 0.5 mg/kg once daily for 15 days. At the end of the administration course, the animals were weighed and euthanized in a CO2 chamber. The ventral lobe of the gland was then dissected, weighed, and its volume was measured, followed by the calculation of a weight coefficient, and subjected to morphological analysis. For this purpose, the prostate was fixed in formalin and poured into paraffin. Paraffin sections of a thickness of 5 μm were stained with hematoxylin-eosin according to Van Gieson on the connective tissue, to calculate the relative area of the epithelium. Further, the severity of atrophic processes and developing sclerosis was qualitatively assessed. The assessment was carried out on standard area of the gland section by using a computer graphic analysis (micrographs of 10 serial visual fields performed by an AxioCam Erc5s camera mounted on an AxioLab A1 microscope (×10 lens, ×10 eyepiece), with an image transfer software of “AxioVision LE”, Carl Zeiss). The area occupied by secretory sites, collagen fibers of connective tissue septa was determined. The effectiveness of the drug was estimated by the following criteria: lower intensity of morphological symptoms of chronic abacterial prostatitis (atrophy and sclerosis): the area occupied by secretory sections, collagen fibers of connective tissue septa.
# [2] = system: male rats; experiment: Morphological and functional state of spermatogenic tissue after Paclitaxel; assay type: in vivo, rat
# Description: The latter was simulated by a single injection of cytostatic drug Paclitaxel (Mitotax, Dr. Reddy's, India) to male rats (3 months of age). The choice of the drug was due to the fact that it is one of the medications that damage the precursors of spermatogenesis—stem cells.
# Paclitaxel was administered to the animals of the control and test groups once intravenously at the maximum tolerated dose of 7.6 mg/kg. Treamid was administered to the animals of the experimental groups intragastrically at a dose of 5 mg/kg in the form of a suspension in 2% starch mucus for 15 days a month after the administration of Paclitaxel. The control animals received an equivalent volume of the solvent (2% starch mucus), instead of the test compound.
# Morphological and functional state of the spermatogenic tissue was assessed to obtain an additional confirmation of the efficiency to stimulate the formation of committed stem cells.
# It was estimated by the following indices: the number of cells in the spermatogonial population, the average number of Sertoli cells, the degree of maturity of the spermatogenic layer, the number of Leydig cells, the endocrine activity of the testis, the total number of sperm cells per epididymis, and the percentage of motile sperm forms. For this, in euthanasia on Day 45, Day 65, and Day 90 of the experiment, the tail part of epididymis and testis were isolated at dissection. The epididymis of one testis was homogenized in a warm (37° C.) physiological saline, and the number of motile sperm forms was determined in the suspension of the epididymis cells. The total number of sperm cells per epididymis (TNS) was calculated by using a homogenized cell suspension of the second epididymis in a dosage amount of physiological saline using a leukocyte-count pipette and Goryaev chamber.
# A morphological assay of the testes of rats was performed by fixation thereof in Carnoy's fluid and by preparing paraffin sections. Deparaffined sections of a thickness of 5 μm were stained with hematoxylin-eosin. The number of cells in the spermatogonial population, the number of Sertoli cells, and the number of Leydig cells were counted on the testis section, and the endocrine activity of Leydig cells was determined. The degree of maturity of the spermatogenic layer was calculated based on the count of Sertoli cells. The calculation was carried out according to the formula for the experimental groups: y=5.95-0.18x; for the group of intact animals: y=6.7-0.23x, where x is the average number of Sertoli cells in the cross-section of the convoluted seminiferous tubule, and y is the index characterizing the degree of maturity of the spermatogenic layer. When choosing the time for studies, the duration of spermatogenesis in rats was taken into account, which was one and a half months. The duration of 45 and 65 days after administration of Paclitaxel corresponds to the manifestation of effects on the spermatogonial cell population.
# The criteria for stimulation of the process of regeneration of the testicular tissue were: an increase in the number of cells in the spermatogonial populations, the number of Sertoli cells, a decrease in the degree of maturity of the spermatogenic layer, and an increase in the productivity of spermatogenesis. The criterion of the functional activity of sperm cells is the percentage of their motile forms.
# [3] = Treamid 0.5 mg/kg 15 days, Prostamol Uno 50 mg/kg
# [4] = anterior part of the prostate gland, Treamid 0.5 mg/kg, Prostamol Uno 50 mg/kg
# [5] = Day 45 after Paclitaxel, Treamid 5 mg/kg
# [6] = Day 65 after Paclitaxel, Treamid 5 mg/kg
# [7] = Day 90 after Paclitaxel, Treamid 5 mg/kg
smiles,measurement,setting,value
O=C(CCCC(=O)NCCc1ncc[nH]1)NCCc1ncc[nH]1 [Treamid],increase in the area of the acinar epithelium,[1]; Treamid 0.5 mg/kg,22%
same,"Volume of the anterior lobe of the prostate gland, cm^3",[1]; [3],0.90 ± 0.20 cm^3
same,Weight coefficient of the anterior lobe of the prostate gland,[1]; [3],1.97 ± 0.47 mg/g
same,Weight of the anterior lobe of the prostate gland,[1]; [3],976.00 ± 226.62 mg
same,Area of collagen fibers,[1]; [4],2.64 ± 0.12 %
same,Area of the acinar epithelium,[1]; [4],26.33 ± 2.63%
same,Number of motile sperm cells (%),[2]; [5],71.57 ± 3.19 %
same,The average number of Sertoli cells (abs.),[2]; [5],1.61 ± 0.03 abs.
same,The average number of spermatogonia (abs.),[2]; [5],14.56 ± 0.19 abs.
same,The degree of maturity of the spermatogenic layer (standard units),[2]; [5],5.66 ± 0.01 standard units
same,Total number of sperm cells (million),[2]; [5],146.00 ± 9.53 million
same,growth of percentage of motile sperm forms in comparison with the control,[2]; Day 65,32%
same,increase of productivity of spermatogenesis (TNS) in comparison with the control,[2]; Day 65,43%
same,Endocrine activity of testes,[2]; [6],4.31 ± 0.24
same,Number of Leydig cells,[2]; [6],9.48 ± 0.21
same,Number of motile sperm cells (%),[2]; [6],79.81 ± 1.61 %
same,The average number of Sertoli cells (abs.),[2]; [6],2.30 ± 0.03 abs.
same,The average number of spermatogonia (abs.),[2]; [6],13.07 ± 0.28 abs.
same,The degree of maturity of the spermatogenic layer (standard units),[2]; [6],5.54 ± 0.00 standard units
same,Total number of sperm cells (million),[2]; [6],145.20 ± 15.15 million
same,increase of productivity of spermatogenesis (TNS) in comparison with the control,[2]; Day 90,46%
same,Endocrine activity,[2]; [7],4.74 ± 4.04
same,Number of motile sperm cells (%),[2]; [7],67.80 ± 1.14 %
same,The average number of Leydig cells,[2]; [7],9.93 ± 0.08
same,The average number of Sertoli cells (abs.),[2]; [7],2.10 ± 0.06 abs.
same,The average number of spermatogonia (abs.),[2]; [7],14.43 ± 0.21 abs.
same,The degree of maturity of the spermatogenic layer (standard units),[2]; [7],5.57 ± 0.01 standard units
same,Total number of sperm cells (million),[2]; [7],186.20 ± 12.74 million
